The source of these data is US7244753B2, “Cyclooxygenase-2 selective inhibitors, compositions and methods of use” (NitroMed, Inc., priority 2002, dated 2007).

One series deals with T1, Human COX-2 (Homo sapiens, UniProt P35354).
T1 construct: Human blood (≈50 mL) from male or female donors who had not received any aspirin or NSAIDs for 14 days was collected; endogenous in cells; host or cells: human whole blood from donors, heparinised, COX-2 induced with E. coli LPS
T1 sequence (P35354 18-604): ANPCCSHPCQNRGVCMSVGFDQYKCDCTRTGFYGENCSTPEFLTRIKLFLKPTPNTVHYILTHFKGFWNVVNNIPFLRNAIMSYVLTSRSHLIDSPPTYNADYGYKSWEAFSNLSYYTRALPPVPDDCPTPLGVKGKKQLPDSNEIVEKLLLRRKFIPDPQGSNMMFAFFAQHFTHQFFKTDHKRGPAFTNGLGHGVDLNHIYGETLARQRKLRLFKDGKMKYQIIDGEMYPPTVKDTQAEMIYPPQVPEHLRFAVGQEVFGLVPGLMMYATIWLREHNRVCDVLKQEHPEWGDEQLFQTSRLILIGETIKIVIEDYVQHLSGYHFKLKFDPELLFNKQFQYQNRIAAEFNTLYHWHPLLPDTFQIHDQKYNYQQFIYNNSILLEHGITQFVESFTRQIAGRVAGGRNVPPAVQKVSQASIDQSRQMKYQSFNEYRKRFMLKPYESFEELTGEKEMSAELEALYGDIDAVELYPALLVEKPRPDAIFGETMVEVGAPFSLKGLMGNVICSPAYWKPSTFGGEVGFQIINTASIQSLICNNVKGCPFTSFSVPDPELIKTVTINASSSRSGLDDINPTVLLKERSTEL
Kind of series: COX-2 enzyme activity in human whole blood (LPS-induced, thromboxane B2 EIA). Format: cell-based. On the procedure:
(§1) Human blood (≈50 mL) from male or female donors who had not received any aspirin or NSAIDs for 14 days was collected at two local area blood donor centers and placed in polypropylene syringes containing sodium heparin (20 units per mL blood, final concentration). The blood was transported to the laboratory on ice packs and used within 1.5 hours of collection. Upon receipt in the laboratory, the blood was allowed to come to room temperature for 15 minutes prior to distribution in 1 mL aliquots per well of 24 well tissue culture plates. The plates were then placed on a gently rotating platform shaker in a 5% CO2 incubator at 37° C. for 15 minutes. Test compounds were dissolved in DMSO, at 1000 fold the final desired concentration, and further diluted, as indicated, in DMSO. One μL of each dilution of the test compound was added per well, in duplicate wells; wells not receiving test compound (e.g., basal, background or control wells) received 1 μL DMSO.
(§2) (Basal or background wells not incubated with LPS received 2 μL of DMSO.) For the stimulation of COX-1, the calcium ionophore, A23187 (free acid from Sigma Chemical Co., St. Louis, Mo., Catalogue No. C7522) was added at 25 μM (1 μL of 25 mM stock in DMSO) to separate wells 4.5 hours after the addition of the test compound. (Again, basal, background or control wells not stimulated with A23187 received 1 μL of DMSO.) At 5 hours after the addition of the test compound, all incubations were terminated by placement on ice and the addition of 2 mM EGTA (100 μL of 20 mM EGTA, tetrasodium, in PBS (phosphate buffered saline) without Ca^++ and Mg^++, pH 7.2)). The resulting solutions, were transferred by polyethylene transfer pipettes to 15 mL polypropylene centrifuge tubes and centrifuged at 1200 g for 10 minutes at 4° C. One hundred μL of plasma was removed from each blood sample and added to 1 mL of methanol in new 15 mL polypropylene centrifuge tubes, vortexed, and stored overnight at −20° C. The next day, the samples were centrifuged at 2000 g for 10 minutes at 4° C. and the supernatants transferred to glass tubes and evaporated to dryness.

The target of another series is T2, Human COX-1 (Homo sapiens, UniProt P23219).
T2 construct: Human blood (≈50 mL) from male or female donors who had not received any aspirin or NSAIDs for 14 days was collected; endogenous in cells; host or cells: human whole blood from donors, heparinised, stimulated with calcium ionophore A23187
Kind of series: COX-1 enzyme activity in human whole blood (A23187-stimulated, thromboxane B2 EIA). Format: cell-based. As to conditions: 100 μM test compound. Here is the method:
as §1, with “The assay for COX-1 and COX-2 enzyme activity, in the human whole blood was performed as described in Brideau et al., Inflamm Res., 45: 68-74 (1996)). Human” for “Human”
as §2, with “To induce COX-2, lipopolysaccharide (LPS) from E. coli (LPS, serotype 026:B6 or serotype 0127:B8, Sigma Chemical Co., St. Louis, Mo., Catalogue No. L3755 or L3129, respectively) was added at 10 μg/mL (2 μL of 5 mg/mL LPS in DMSO) to appropriate wells 15 minutes after the addition of the test compound. (Basal” for “(Basal”, “dryness. The samples were assayed for thromboxane B2 using EIA kits supplied by Cayman Chemical Co. (Ann Arbor, Mich., Catalogue No. 519031) in duplicate wells after reconstitution with EIA Buffer and appropriate dilution (2000 fold for COX-1 and 500 fold for Cox-2 samples).” for “dryness.”
The % inhibition for COX-1 and COX-2 enzyme activity in human whole blood by the test compounds, at the indicated concentrations, are given in Table 1.

T2 sequence (P23219 24-599): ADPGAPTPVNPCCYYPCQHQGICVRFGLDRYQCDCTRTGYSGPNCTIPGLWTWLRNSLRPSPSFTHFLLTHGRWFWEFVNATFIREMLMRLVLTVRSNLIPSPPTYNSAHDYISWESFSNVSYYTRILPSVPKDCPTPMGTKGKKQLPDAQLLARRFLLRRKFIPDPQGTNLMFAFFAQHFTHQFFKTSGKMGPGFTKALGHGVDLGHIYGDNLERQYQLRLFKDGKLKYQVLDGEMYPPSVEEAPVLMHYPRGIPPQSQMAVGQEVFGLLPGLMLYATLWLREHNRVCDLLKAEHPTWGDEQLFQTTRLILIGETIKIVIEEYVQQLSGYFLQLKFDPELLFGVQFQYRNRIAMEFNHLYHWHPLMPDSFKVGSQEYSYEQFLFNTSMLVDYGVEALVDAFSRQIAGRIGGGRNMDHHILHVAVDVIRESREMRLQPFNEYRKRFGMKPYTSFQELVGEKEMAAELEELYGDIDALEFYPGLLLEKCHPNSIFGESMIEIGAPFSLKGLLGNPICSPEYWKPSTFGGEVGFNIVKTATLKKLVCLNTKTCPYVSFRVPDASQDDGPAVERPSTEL

On to `CS(=O)(=O)c1ccc(-c2cc(CO)nn2Cc2ccccc2)cc1` [Example 3c, 1-(3-(Hydroxymethyl)-1-benzylpyrazol-5-yl)-4-(methylsulfonyl)benzene], for which, on Human COX-2 (1 μM test compound), the inhibition at 1 µM is 10%. Further, on Human COX-2 (10 μM test compound), the inhibition at 10 µM came to 15%. The inhibition at 100 µM at Human COX-1 was 25%.

Take `CS(=O)(=O)c1ccc(-c2cc(C(F)(F)F)cnc2C(C#N)c2ccccc2)cc1` (centres unmarked) [Example 9b, 2-(3-(4-(methylsulfonyl)phenyl)-5-(trifluoromethyl)(2-pyridyl))-2-phenylethanenitrile]: the inhibition at 1 µM on Human COX-2 (1 μM test compound) is 35%. Also, on Human COX-2 (10 μM test compound), the inhibition at 10 µM stood at 55%. For the same compound, the inhibition at 100 µM at Human COX-1 is -10%.

For `CS(=O)(=O)c1ccc(-c2cc(/C=C/CO)nn2CC2CCCCC2)cc1` [Example 4d, 1-(3-((1E)-3-Hydroxyprop-1-enyl)-1-(cyclohexylmethyl)pyrazol-5-yl)-4-(methylsulfonyl)benzene], the inhibition at 1 µM at Human COX-2 (1 μM test compound) was 25%. Besides, the inhibition at 10 µM at Human COX-2 (10 μM test compound) came out at 45%. In addition, the inhibition at 100 µM on Human COX-1 is 50%.

Consider `CS(=O)(=O)c1ccc(-c2ncccc2C(=O)c2cccc(F)c2)cc1` [Example 10c, 3-Fluorophenyl 2-(4-methylsulfonylphenyl)(3-pyridyl) ketone], for which the inhibition at 1 µM on Human COX-2 (1 μM test compound) is 55%. Moreover, at Human COX-2 (10 μM test compound), the inhibition at 10 µM was 50%. Further, the inhibition at 100 µM at Human COX-1 amounted to 5%.

`CS(=O)(=O)c1ccc(-c2cc(CCCO[N+](=O)[O-])nn2CC2CCCCC2)cc1` [Example 5c, 1-(1-(Cyclohexylmethyl)-3-(3-(nitrooxy)propyl)pyrazol-5-yl)-4-(methylsulfonyl)benzene]: the melting point was in the range of 76 to 77 °C. Further, the inhibition at 1 µM at Human COX-2 (1 μM test compound) is 75%. At Human COX-2 (10 μM test compound), the inhibition at 10 µM came out at 100%. In addition, the inhibition at 100 µM against Human COX-1 was 90%.

With `CS(=O)(=O)c1ccc(-c2cc(CO[N+](=O)[O-])nn2Cc2ccccc2)cc1` [Example 3d, 4-(Methylsulfonyl)-1-(3-((nitrooxyl)methyl)-1-benzylpyrazol-5-yl)benzene], the melting point lay in the range of 93 to 94 °C. At Human COX-2 (1 μM test compound), the inhibition at 1 µM is 20%. Further, the inhibition at 10 µM at Human COX-2 (10 μM test compound) came to 40%. Also, the inhibition at 100 µM against Human COX-1 amounted to 55%.

In the case of `COC(=O)/C=C/c1cc(-c2ccc(S(C)(=O)=O)cc2)n(CC2CCCCC2)n1` [Example 7, Methyl (2E)-3-(1-(cyclohexylmethyl)-5-(4-(methylsulfonyl)phenyl)pyrazol-3-yl) prop-2-enoate], the “COX-2 Inhibition (% at 1 μM)” value on Human COX-2 (1 μM test compound) was 15%. The “COX-2 Inhibition (% at 10 μM)” value at Human COX-2 (10 μM test compound) is on record as 30%. In addition, the “COX-1 Inhibition (% at 100 μM)” value at Human COX-1 came out at 5%.

In the case of `CS(=O)(=O)c1ccc(-c2ncccc2C(=O)c2ccccn2)cc1` [Example 11b, 2-(4-(Methylsulfonyl)phenyl)(3-pyridyl) 2-pyridyl Ketone], the melting point fell in the range of 143 to 147 °C. Besides, the inhibition at 1 µM against Human COX-2 (1 μM test compound) was found to be 0%. Besides, the inhibition at 10 µM against Human COX-2 (10 μM test compound) worked out at 15%. At Human COX-1, the inhibition at 100 µM was 0%.

With `CS(=O)(=O)c1ccc(-c2cc(CCCO)nn2CC2CCCCC2)cc1` [Example 5b, 1-(1-(Cyclohexylmethyl)-3-(3-hydroxypropyl)pyrazol-5-yl)-4-(methylsulfonyl)benzene], at Human COX-2 (1 μM test compound), the inhibition at 1 µM came to 45%. The inhibition at 10 µM against Human COX-2 (10 μM test compound) amounted to 90%. The inhibition at 100 µM against Human COX-1 is 90%.

Compound `C=Cc1cc(-c2ccc(S(C)(=O)=O)cc2)n(CC2CCCCC2)n1` [Example 6b, 1-(1-(Cyclohexylmethyl)-3-vinylpyrazol-5-yl)-4-(methylsulfonyl)benzene] had a melting point of 136 to 138 °C. Besides, the inhibition at 1 µM against Human COX-2 (1 μM test compound) is 70%. Also, the inhibition at 10 µM on Human COX-2 (10 μM test compound) turned out to be 100%. The inhibition at 100 µM on Human COX-1 was 30%.

`CS(=O)(=O)c1ccc(-c2cc(/C=C/CO[N+](=O)[O-])nn2CC2CCCCC2)cc1` [Example 4e, 1-(3-((1E)-3-Nitrooxyprop-1-enyl)-1-(cyclohexylmethyl)pyrazol-5-yl)-4-(methylsulfonyl)benzene] registered a melting point of 44 to 47 °C. For the same compound, on Human COX-2 (1 μM test compound), the inhibition at 1 µM came out at 35%. Moreover, the inhibition at 10 µM at Human COX-2 (10 μM test compound) was found to be 75%. Besides, on Human COX-1, the inhibition at 100 µM was determined as 40%.

In the case of `CS(=O)(=O)c1ccc(-c2cc(C(F)(F)F)cnc2C(=O)c2ccccc2)cc1` [Example 9a, 3-(4-(Methylsulfonyl)phenyl)-5-(trifluoromethyl)(2-pyridyl) Phenyl Ketone], the melting point fell in the range of 141 to 142 °C. For the same compound, the inhibition at 100 µM at Human COX-1 was 90%.

In the case of `CS(=O)(=O)c1ccc(-c2cc(COCCO)nn2CC2CCCCC2)cc1` [Example 2e, 4-(1-(Cyclohexylmethyl)-3-((2-hydroxyethoxy)methyl)pyrazol-5-yl)-1 (methylsulfonyl)benzene], at Human COX-2 (1 μM test compound), the inhibition at 1 µM turned out to be 25%. Further, the inhibition at 10 µM against Human COX-2 (10 μM test compound) is 65%. For the same compound, on Human COX-1, the inhibition at 100 µM came to 65%.

`COC(=O)c1cc(-c2ccc(S(C)(=O)=O)cc2)n(Cc2ccccc2)n1` [Example 8, Methyl 5-(4-(methylsulfonyl)phenyl)-1-benzylpyrazole-3-carboxylate] had a melting point of 142 to 143 °C. Besides, the inhibition at 1 µM against Human COX-2 (1 μM test compound) was 15%. For the same compound, the inhibition at 10 µM against Human COX-2 (10 μM test compound) turned out to be 25%. The inhibition at 100 µM at Human COX-1 was found to be 55%.

Turning to `CS(=O)(=O)c1ccc(-c2cc(CO)nn2CC2CCCCC2)cc1` [Example 1g, 1-(1-(Cyclohexylmethyl)-3-(hydroxymethyl)pyrazol-5-yl)-4-(methylsulfonyl)benzene], at Human COX-2 (1 μM test compound), the inhibition at 1 µM is 0%. Besides, the inhibition at 10 µM against Human COX-2 (10 μM test compound) turned out to be 45%. The inhibition at 100 µM against Human COX-1 came to 65%.

One may read the inhibition as the relative decrease from the control value, in per cent. What is called melting point is the temperature of the solid-liquid transition.
